Assay results taken from US11945798B2, “Substituted aminopyridine compounds as EGFR inhibitors” (YUHAN CORPORATION, priority 2021, dated 2024).
Where two headings read alike, the source gives them in different places.

Columns and labels:
EGFR wildtype (WT) = EGFR wildtype (WT) (Homo sapiens, UniProt P00533); assay: Biochemical EGFR kinase assay (Lance Ultra TR-FRET), wildtype
In short: (§1)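 Kinase activity is measured by TR-FRET phosphopeptide detection. Compounds span 0.003 μM to 10 μM; the 1 h reaction at room temperature is quenched with EDTA, then labelled antibody (2 nM) is incubated 60 min before reading.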

EGFR L858R/C797S = EGFR L858R/C797S (Homo sapiens, UniProt P00533, C797S/L858R); assay: Biochemical EGFR kinase assay (Lance Ultra TR-FRET), L858R/C797S
EGFR L858R/C797S, sequence (P00533 25-1210 C797S/L858R): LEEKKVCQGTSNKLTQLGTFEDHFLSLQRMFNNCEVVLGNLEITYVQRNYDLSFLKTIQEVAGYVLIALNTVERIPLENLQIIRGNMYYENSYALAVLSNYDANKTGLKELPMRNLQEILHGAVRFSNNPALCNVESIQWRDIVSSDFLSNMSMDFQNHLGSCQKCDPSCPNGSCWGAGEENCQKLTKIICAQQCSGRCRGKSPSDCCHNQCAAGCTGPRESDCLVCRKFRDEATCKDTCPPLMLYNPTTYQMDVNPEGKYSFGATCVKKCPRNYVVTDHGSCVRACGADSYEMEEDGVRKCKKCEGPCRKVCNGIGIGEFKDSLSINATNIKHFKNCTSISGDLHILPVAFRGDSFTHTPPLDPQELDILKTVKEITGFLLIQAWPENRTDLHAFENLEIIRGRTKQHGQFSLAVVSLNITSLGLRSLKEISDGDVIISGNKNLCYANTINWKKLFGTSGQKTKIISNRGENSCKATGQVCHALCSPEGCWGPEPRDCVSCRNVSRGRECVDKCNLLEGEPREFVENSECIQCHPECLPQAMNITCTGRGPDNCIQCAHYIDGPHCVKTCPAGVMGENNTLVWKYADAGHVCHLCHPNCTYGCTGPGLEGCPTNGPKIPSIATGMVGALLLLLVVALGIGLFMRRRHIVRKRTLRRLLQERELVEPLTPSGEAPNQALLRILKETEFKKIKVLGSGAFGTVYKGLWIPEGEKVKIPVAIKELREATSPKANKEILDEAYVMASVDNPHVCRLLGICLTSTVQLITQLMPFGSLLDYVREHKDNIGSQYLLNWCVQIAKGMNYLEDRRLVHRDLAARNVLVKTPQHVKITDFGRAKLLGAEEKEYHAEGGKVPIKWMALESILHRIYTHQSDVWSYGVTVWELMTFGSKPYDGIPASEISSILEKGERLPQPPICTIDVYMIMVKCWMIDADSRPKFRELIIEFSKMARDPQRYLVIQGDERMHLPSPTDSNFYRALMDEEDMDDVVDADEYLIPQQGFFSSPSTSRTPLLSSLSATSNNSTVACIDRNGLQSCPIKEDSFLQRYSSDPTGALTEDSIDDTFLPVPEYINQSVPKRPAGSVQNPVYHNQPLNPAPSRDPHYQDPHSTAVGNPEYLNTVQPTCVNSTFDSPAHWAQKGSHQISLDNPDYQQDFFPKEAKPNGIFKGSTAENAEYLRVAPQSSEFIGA
In short: as §1

EGFR del19/C797S = EGFR del19/C797S (Homo sapiens, UniProt P00533, C797S/DEL746-750); assay: Biochemical EGFR kinase assay (Lance Ultra TR-FRET), del19/C797S
EGFR del19/C797S, sequence (P00533 with tags, fused parts or gaps DEL746-750/C797S): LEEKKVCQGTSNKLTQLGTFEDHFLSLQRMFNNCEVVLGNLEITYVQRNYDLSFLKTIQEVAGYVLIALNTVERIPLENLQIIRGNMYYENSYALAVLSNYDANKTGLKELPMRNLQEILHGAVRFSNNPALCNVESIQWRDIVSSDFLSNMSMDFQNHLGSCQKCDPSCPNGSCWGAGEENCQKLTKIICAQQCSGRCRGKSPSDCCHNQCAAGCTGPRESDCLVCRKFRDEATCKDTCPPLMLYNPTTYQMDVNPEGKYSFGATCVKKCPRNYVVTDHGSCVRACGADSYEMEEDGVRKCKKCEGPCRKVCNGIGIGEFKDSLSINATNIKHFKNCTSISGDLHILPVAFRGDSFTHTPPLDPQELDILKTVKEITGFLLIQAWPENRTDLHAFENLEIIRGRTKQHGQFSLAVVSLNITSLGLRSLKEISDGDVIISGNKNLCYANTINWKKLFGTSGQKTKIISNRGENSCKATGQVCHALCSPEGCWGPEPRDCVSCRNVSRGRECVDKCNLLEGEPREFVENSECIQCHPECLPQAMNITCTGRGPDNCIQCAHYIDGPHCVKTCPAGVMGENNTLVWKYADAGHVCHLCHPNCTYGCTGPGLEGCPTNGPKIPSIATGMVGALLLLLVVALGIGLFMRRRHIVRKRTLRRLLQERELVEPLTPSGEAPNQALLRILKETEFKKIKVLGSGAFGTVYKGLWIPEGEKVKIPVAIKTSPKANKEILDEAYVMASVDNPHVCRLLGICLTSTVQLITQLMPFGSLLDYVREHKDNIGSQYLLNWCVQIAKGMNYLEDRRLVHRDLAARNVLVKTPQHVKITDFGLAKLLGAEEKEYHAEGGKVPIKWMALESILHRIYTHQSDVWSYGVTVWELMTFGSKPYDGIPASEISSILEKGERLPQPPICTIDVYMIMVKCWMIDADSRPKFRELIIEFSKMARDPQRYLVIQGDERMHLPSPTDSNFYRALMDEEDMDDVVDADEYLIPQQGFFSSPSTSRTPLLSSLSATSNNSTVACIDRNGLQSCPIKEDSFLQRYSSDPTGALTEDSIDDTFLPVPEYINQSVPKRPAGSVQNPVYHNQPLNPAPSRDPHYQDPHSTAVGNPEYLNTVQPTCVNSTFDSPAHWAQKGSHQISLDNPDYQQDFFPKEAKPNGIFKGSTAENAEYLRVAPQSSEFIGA
In short: as §1

EGFR del19/T790M/C797S = EGFR del19/T790M/C797S (Homo sapiens, UniProt P00533, C797S/DEL746-750/T790M); assay: Biochemical EGFR kinase assay (Lance Ultra TR-FRET), del19/T790M/C797S
In short: as §1

EGFR L858R/T790M/C797S = EGFR L858R/T790M/C797S (Homo sapiens, UniProt P00533, C797S/L858R/T790M); assay: Biochemical EGFR kinase assay (Lance Ultra TR-FRET), L858R/T790M/C797S
EGFR L858R/T790M/C797S, sequence (P00533 25-1210 T790M/C797S/L858R): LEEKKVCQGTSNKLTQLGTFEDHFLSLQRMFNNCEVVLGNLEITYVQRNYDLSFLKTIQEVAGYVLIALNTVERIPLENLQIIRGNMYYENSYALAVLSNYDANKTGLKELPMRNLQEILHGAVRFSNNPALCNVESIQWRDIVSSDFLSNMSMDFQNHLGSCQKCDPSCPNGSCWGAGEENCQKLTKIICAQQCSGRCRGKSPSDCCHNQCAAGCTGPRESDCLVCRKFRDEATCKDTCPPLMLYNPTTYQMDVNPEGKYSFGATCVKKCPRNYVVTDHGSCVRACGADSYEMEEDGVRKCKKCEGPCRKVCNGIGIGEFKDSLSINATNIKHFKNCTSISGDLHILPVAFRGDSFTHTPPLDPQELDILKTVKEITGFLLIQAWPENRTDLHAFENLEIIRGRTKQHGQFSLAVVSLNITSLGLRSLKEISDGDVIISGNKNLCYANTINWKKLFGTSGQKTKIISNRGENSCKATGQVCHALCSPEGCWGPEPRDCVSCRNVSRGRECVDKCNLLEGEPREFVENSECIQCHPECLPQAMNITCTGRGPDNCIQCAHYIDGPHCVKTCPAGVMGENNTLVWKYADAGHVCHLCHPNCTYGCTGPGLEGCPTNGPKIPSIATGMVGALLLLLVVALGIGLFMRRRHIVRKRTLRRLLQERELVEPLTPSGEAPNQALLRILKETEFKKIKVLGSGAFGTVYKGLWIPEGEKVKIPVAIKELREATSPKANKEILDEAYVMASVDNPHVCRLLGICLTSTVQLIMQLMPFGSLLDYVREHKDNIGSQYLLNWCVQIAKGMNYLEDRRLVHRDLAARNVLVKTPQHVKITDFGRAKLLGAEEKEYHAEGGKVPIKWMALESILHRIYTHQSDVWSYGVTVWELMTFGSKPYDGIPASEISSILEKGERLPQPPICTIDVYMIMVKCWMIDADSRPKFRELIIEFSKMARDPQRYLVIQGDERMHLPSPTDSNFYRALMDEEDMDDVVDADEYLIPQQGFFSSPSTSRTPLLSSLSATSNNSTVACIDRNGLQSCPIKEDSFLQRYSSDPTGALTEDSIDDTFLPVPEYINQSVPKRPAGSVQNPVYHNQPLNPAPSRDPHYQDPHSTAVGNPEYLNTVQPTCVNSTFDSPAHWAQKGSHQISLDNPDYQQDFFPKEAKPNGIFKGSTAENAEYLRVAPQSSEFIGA
In short: as §1

[1] = Km ATP, read-out: IC50 WT (nM) Km ATP
[2] = Km ATP, read-out: IC50 L858R/C797S (nM) Km ATP
[3] = Km ATP, read-out: IC50 del19/C797S (nM) Km ATP
[4] = Km ATP, read-out: IC50 del19/T790M/C797S (nM) Km ATP
[5] = Km ATP, read-out: IC50 L858R/T790M/C797S (nM) Km ATP
[6] = IC50 WT (nM) 100 μM ATP, 100 μM ATP
[7] = IC50 L858R/C797S (nM) 100 μM ATP, 100 μM ATP
[8] = IC50 del19/C797S (nM) 100 μM ATP, 100 μM ATP
[9] = IC50 del19/T790M/C797S (nM) 100 μM ATP, 100 μM ATP
[10] = IC50 L858R/T790M/C797S (nM) 100 μM ATP, 100 μM ATP

EGFR wildtype (WT), sequence (P00533 25-1210): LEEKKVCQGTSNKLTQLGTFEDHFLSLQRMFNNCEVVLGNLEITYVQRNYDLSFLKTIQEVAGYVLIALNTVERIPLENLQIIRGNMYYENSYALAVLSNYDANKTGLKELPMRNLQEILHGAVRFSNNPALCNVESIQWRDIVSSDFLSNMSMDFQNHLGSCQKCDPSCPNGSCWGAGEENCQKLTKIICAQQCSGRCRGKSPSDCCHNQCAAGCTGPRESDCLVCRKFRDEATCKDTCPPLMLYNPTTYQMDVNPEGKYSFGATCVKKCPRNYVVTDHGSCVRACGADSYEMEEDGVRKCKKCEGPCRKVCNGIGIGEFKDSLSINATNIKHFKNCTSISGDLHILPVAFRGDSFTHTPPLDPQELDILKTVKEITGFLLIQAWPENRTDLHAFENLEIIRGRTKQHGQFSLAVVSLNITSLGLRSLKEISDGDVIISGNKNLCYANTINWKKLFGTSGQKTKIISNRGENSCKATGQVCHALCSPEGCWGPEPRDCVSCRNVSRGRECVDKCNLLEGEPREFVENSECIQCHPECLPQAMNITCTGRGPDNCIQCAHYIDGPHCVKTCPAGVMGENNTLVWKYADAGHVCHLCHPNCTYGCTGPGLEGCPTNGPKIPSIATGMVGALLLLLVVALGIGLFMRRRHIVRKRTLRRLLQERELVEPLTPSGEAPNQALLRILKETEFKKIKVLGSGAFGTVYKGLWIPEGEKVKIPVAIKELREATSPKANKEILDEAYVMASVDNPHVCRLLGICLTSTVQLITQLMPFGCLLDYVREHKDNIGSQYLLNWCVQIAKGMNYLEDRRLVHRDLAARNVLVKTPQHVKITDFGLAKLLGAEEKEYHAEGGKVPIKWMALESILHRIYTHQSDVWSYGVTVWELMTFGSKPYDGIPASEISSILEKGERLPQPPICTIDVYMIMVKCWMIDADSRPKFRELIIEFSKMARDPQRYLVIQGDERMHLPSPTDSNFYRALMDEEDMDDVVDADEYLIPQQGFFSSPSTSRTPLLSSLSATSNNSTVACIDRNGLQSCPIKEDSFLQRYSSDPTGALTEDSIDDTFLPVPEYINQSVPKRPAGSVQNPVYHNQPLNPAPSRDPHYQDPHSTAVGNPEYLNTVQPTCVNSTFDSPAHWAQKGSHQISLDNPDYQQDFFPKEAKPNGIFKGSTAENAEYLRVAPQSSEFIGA

SMILES | IC50 (EGFR wildtype (WT); [1]) | IC50 (EGFR L858R/C797S; [2]) | IC50 (EGFR del19/C797S; [3]) | IC50 (EGFR del19/T790M/C797S; [4]) | IC50 (EGFR L858R/T790M/C797S; [5]) | IC50 (EGFR wildtype (WT); [6]) | IC50 (EGFR L858R/C797S; [7]) | IC50 (EGFR del19/C797S; [8]) | IC50 (EGFR del19/T790M/C797S; [9]) | IC50 (EGFR L858R/T790M/C797S; [10])
CC(=O)NC[C@H]1CC[C@H](CNc2cc(Nc3ccnc(-c4cnn(S(=O)(=O)C5CC5)c4)n3)ncc2C(=O)C2CC2)CC1 [Example 68, N-(((1r,4r)-4-(((5-(Cyclopropanecarbonyl)-2-((2-(1-(cyclopropylsulfonyl)-1H-pyrazol-4-yl)pyrimidin-4-yl)amino)pyridin-4-yl)amino)methyl)cyclohexyl)methyl)acetamide] | 14.9 nM | 11.8 nM | 1 nM | 1 nM | 0.5 nM | – | – | – | – | –
CC(C)NC[C@H]1CC[C@H](CNc2cc(Nc3ccnc(-c4cnn(S(=O)(=O)C5CC5)c4)n3)ncc2C(=O)C2CC2)CC1 [Example 69, Cyclopropyl(6-((2-(1-(cyclopropylsulfonyl)-1H-pyrazol-4-yl)pyrimidin-4-yl)amino)-4-((((1r,4r)-4-((isopropylamino)methyl)cyclohexyl)methyl)amino)pyridin-3-yl)methanone] | 7.5 nM | 9.2 nM | 0.8 nM | 0.1 nM | 0.1 nM | – | – | – | – | –
O=C(c1cnc(Nc2ccnc(-c3cnn(S(=O)(=O)C4CC4)c3)n2)cc1NC[C@H]1CC[C@H](CNC2CCCC2)CC1)C1CC1 [Example 70, (4-((((1r,4r)-4-((Cyclopentylamino)methyl)cyclohexyl)methyl)amino)-6-((2-(1-(cyclopropylsulfonyl)-1H-pyrazol-4-yl)pyrimidin-4-yl)amino)pyridin-3-yl)(cyclopropyl)methanone] | 24.2 nM | 14.4 nM | 2.7 nM | 0.3 nM | 0.4 nM | – | – | – | – | –
CC(C)Nc1cc(Nc2ccnc(-c3cnn(S(=O)(=O)C4CC4)c3)n2)ncc1C(=O)NCCF [Example 74, 6-((2-(1-(Cyclopropylsulfonyl)-1H-pyrazol-4-yl)pyrimidin-4-yl)amino)-N-(2-fluoroethyl)-4-(isopropylamino)nicotinamide] | 393 nM | – | 94.6 nM | 6.3 nM | – | > 10000 nM | 430 nM | 182 nM | 4.2 nM | 5.7 nM
C[C@]1(O)CC[C@@H](Nc2cc(Nc3ccnc(-c4cnn(S(=O)(=O)C5CC5)c4)n3)ncc2C(=O)NCCF)CC1 [Example 76, 6-((2-(1-(Cyclopropylsulfonyl)-1H-pyrazol-4-yl)pyrimidin-4-yl)amino)-N-(2-fluoroethyl)-4-(((1s,4s)-4-hydroxy-4-methylcyclohexyl)amino)nicotinamide] | 12 nM | 2.7 nM | 0.9 nM | 0.2 nM | 0.1 nM | > 10000 nM | 28.9 nM | 2.3 nM | 0.6 nM | 0.7 nM
O=C(NCCF)c1cnc(Nc2ccnc(-c3cnn(S(=O)(=O)C4CC4)c3)n2)cc1N[C@H]1CC[C@@H](NCCF)CC1 [Example 77, 6-((2-(1-(Cyclopropylsulfonyl)-1H-pyrazol-4-yl)pyrimidin-4-yl)amino)-N-(2-fluoroethyl)-4-(((1s,4s)-4-((2-fluoroethyl)amino)cyclohexyl)amino)nicotinamide] | 57.4 nM | 9 nM | 5.6 nM | 0.2 nM | 0.1 nM | > 10000 nM | 145 nM | 19.3 nM | 0.9 nM | 1.6 nM
O=C(N[C@H]1CC[C@H](O)CC1)c1cnc(Nc2ccnc(-c3cnn(S(=O)(=O)C4CC4)c3)n2)cc1N[C@H]1CC[C@@H](NCCF)CC1 [Example 80, 6-((2-(1-(Cyclopropylsulfonyl)-1H-pyrazol-4-yl)pyrimidin-4-yl)amino)-4-(((1s,4s)-4-((2-fluoroethyl)amino)cyclohexyl)amino)-N-((1r,4r)-4-hydroxycyclohexyl)nicotinamide] | – | – | – | – | – | > 10000 nM | 170 nM | 72.8 nM | 0.8 nM | 2.4 nM
CC1(CO)CCN(c2cc(Nc3ccnc(-c4cnn(S(=O)(=O)C5CC5)c4)n3)ncc2F)CC1 [Example 85, (1-(2-((2-(1-(Cyclopropylsulfonyl)-1H-pyrazol-4-yl)pyrimidin-4-yl)amino)-5-fluoropyridin-4-yl)-4-methylpiperidin-4-yl)methanol] | – | – | – | – | – | > 10000 nM | 903 nM | 146 nM | 9.4 nM | 21.5 nM
O=C(c1cnc(Nc2ccnc(-c3cnn(S(=O)(=O)C4CC4)c3)n2)cc1N[C@H]1CC[C@](O)(CO)CC1)C1CC1 [Example 86, Cyclopropyl(6-((2-(1-(cyclopropylsulfonyl)-1H-pyrazol-4-yl)pyrimidin-4-yl)amino)-4-(((1s,4s)-4-hydroxy-(4-hydroxymethyl)cyclohexyl)amino)pyridin-3-yl)methanone] | 47.6 nM | 4.3 nM | 1.9 nM | 0.2 nM | 0.1 nM | > 10000 nM | 52.9 nM | 2.9 nM | 0.2 nM | 0.3 nM
O=C(c1cnc(Nc2ccnc(-c3cnn(S(=O)(=O)C4CC4)c3)n2)cc1NC1CCC(F)(CO)CC1)C1CC1 (stereo not shown) [Example 87, Cyclopropyl(6-((2-(1-(cyclopropylsulfonyl)-1H-pyrazol-4-yl)pyrimidin-4-yl)amino)-4-((4-fluoro-4-(hydroxymethyl)cyclohexyl)amino)pyridin-3-yl)methanone] | – | – | – | – | – | > 10000 nM | 442 nM | 25.3 nM | 2.2 nM | 4.3 nM
CN[C@H]1CC[C@H](CNc2cc(Nc3ccnc(-c4cnn(S(=O)(=O)C5CC5)c4)n3)ncc2C(=O)C2CC2)CC1 [Example 88, Cyclopropyl(6-((2-(1-(cyclopropylsulfonyl)-1H-pyrazol-4-yl)pyrimidin-4-yl)amino)-4-((((1r,4r)-4-(methylamino)cyclohexyl)methyl)amino)pyridin-3-yl)methanone] | 24.6 nM | 2.6 nM | 1.6 nM | 0.1 nM | 0.1 nM | 3160 nM | 30.7 nM | 2.6 nM | 0.1 nM | 0.2 nM
CNC[C@H]1CC[C@H](CNc2cc(Nc3ccnc(-c4cnn(S(=O)(=O)C5CC5)c4)n3)ncc2C(=O)C2CC2)CC1 [Example 89, Cyclopropyl(6-((2-(1-(cyclopropylsulfonyl)-1H-pyrazol-4-yl)pyrimidin-4-yl)amino)-4-((((1r,4r)-4-((methylamino)methyl)cyclohexyl)methyl)amino)pyridin-3-yl)methanone] | 4.9 nM | 0.7 nM | 0.5 nM | 0.2 nM | 0.1 nM | 532 nM | 7.9 nM | 0.8 nM | 0.2 nM | 0.1 nM
